Patent US20120064531A1, “MODIFIED NUCLEOTIDE AND REAL-TIME POLYMERASE REACTION USING THE SAME” (Korea Institute of Science and Technology, priority 2010, published 2012)

Key:
[1] = test system: Therminator γ DNA polymerase; assay: Quantitative real-time PCR analysis (fluorescence after each cycle, Ct standard curve); type: biochemical; conditions: for Sensitivity (Required PCR cycles for 1 copy number: Y-intercept): real-time PCR standard curve, a lower value means more sensitivity; for (Efficiency, %) [100 × (10^(−1/slope) − 1)]: real-time PCR, template 10 nM to 10 fM, 40 cycles, Max = 100%
Method: Total of 40 cycles of PCR was performed, wherein each cycle consists of 94° C. for 10 sec, 54° C. for 15 sec, and 72° C. for 10 sec. After each cycle was completed, fluorescence intensity was measured in real time by using StepOne real-time PCR system (ABI). […] Ct (threshold cycle) value was set up by determining the point at which the threshold encounters the polymerization curve. […] Analysis was performed under the PCR conditions, the equipment and the method identical to that of <example 4>.

[2] = target: T1, Taq DNA polymerase (Thermus aquaticus, UniProt P19821); assay: Primer extension reaction with PAGE to search for a DNA polymerase able to use γF-dGTP as a substrate; type: biochemical; conditions: γF-dGTP 25 uM instead of dGTP; 5 cycles 94/46/60° C.; 20% denaturing PAGE, FIG. 3
T1 construct: purchased New England Biolabs
T1 sequence (P19821 whole entry): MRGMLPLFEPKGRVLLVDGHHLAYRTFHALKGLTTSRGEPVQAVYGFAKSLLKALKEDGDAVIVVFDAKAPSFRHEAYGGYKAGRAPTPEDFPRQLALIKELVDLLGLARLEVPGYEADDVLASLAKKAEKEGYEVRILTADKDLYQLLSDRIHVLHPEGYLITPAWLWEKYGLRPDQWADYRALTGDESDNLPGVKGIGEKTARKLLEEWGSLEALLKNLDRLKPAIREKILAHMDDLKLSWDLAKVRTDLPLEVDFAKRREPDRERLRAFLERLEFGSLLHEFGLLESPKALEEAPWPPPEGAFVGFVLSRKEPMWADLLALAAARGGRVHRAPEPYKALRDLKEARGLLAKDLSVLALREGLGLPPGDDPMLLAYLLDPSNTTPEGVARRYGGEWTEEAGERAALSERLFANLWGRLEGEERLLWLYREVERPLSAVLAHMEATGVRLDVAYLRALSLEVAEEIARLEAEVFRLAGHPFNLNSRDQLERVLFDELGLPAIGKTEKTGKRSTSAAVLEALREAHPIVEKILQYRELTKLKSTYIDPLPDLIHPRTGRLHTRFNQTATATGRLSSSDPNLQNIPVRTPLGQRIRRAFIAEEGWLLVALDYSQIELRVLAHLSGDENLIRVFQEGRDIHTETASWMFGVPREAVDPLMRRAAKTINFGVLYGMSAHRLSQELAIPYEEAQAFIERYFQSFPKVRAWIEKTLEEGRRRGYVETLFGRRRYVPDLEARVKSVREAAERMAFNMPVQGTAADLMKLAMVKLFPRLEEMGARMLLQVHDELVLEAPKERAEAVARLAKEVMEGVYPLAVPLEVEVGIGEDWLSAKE
Method: (§1) In order to search DNA polymerase, primer extension reaction was performed.
(§2) More specifically, the mixed reaction solution was heated by repeating five times a cycle consisting of 20 sec at 94° C., 40 sec at 46° C., and 90 sec at 60° C.
For a control group experiment, Taq DNA polymerase reaction was performed by using dGTP in a natural state instead of γF-dGTP under the same conditions mentioned above.
(§3) After each polymerase reaction, the mixed reaction solution was developed (Vertical Gel Electrophoresis Unit, Sigma-Aldrich) by using 20% denaturing polyacrylamide gel electrophoresis (PAGE). As a result, an image of DNA fluorescence band was obtained by using scanner (Typhoon9400, GE healthcare).

[3] = test system: Therminator γ DNA polymerase; assay: as above; type: biochemical; conditions: γF-dGTP 25 uM instead of dGTP; 5 cycles 94/46/60° C.; 20% denaturing PAGE, FIG. 3
Method: as §1, §2, §3

[4] = target: Phi29 DNA polymerase (Bacillus phage phi29, UniProt P03680); conditions: γF-dGTP 25 uM, 30° C. for 20 min, read every 20 sec; FIG. 6
Chain of Phi29 DNA polymerase (P03680 whole entry): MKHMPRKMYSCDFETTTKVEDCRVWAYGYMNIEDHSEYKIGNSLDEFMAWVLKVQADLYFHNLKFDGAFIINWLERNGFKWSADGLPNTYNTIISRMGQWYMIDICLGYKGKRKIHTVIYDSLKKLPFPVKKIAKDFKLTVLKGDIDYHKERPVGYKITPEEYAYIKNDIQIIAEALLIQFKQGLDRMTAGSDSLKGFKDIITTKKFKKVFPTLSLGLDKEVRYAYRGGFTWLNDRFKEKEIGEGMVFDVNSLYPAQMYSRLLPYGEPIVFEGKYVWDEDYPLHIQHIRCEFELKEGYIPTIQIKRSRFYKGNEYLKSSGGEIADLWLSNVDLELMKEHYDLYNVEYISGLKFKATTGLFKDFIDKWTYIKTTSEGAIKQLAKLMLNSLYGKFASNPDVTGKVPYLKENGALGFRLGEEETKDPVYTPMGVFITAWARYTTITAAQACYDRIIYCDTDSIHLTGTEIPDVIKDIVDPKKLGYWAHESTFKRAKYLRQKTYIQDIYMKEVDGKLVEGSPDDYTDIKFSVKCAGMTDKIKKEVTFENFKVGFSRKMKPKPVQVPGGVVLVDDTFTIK
Method: Real-time RCA (rolling circle amplification) analysis was performed by using 20 ul of mixed reaction solution comprising the primer having SEQ ID: 6 (5′-[…], 100 nM), the template chain having SEQ ID: 7 (5′-[…] […], 100 nM), dATP (25 uM, Promega), dCTP (25 uM, Promega), dTTP (25 uM, Promega), γF-dGTP (25 uM), BSA (100 μg/mL), Phi29 DNA polymerase reaction buffer (New England Biolabs), and Phi29 DNA polymerase. (6 units) The reaction was performed at 30° C. for 20 min and fluorescence intensity at every 20 sec was measured by the equipment used in <example 4>.

Structure (SMILES): CCCN(CCCN(C)C)c1cc(/C=C2/Sc3ccccc3N2C)c2ccccc2[n+]1-c1ccccc1 [SYBR green I, reference compound]
- Sensitivity (Required PCR cycles for 1 copy number: Y-intercept) [1]: 47.2
- (Efficiency, %) [100 × (10^(−1/slope) − 1)] [1]: 80.5%

Structure (SMILES): CC1=CC(C)=[N+]2C1=Cc1ccc(CCC(=O)NCCNP(=O)(O)OP(=O)(O)OP(=O)(O)OC[C@H]3O[C@@H](n4cnc5c(=O)[nH]c(N)nc54)C[C@@H]3O)n1[B-]2(F)F [γF-dGTP]
- Use as a substrate by the polymerase (fully extended polymerization product on PAGE) [2]: can use the modified nucleotide as a substrate
- Use as a substrate by the polymerase (fully extended polymerization product on PAGE) [3]: can use the modified nucleotide as a substrate
- Sensitivity (Required PCR cycles for 1 copy number: Y-intercept) [1]: 41.5
- (Efficiency, %) [100 × (10^(−1/slope) − 1)] [1]: 93.4%
- Fluorescence intensity during real-time RCA [4]: fluorescence intensity increases
